# Source: patent publication US20100129432A1, “MICROORGANISM-KILLING COMBINATION” (TAIPEI MEDICAL UNIVERSITY, priority 2008, published 2010)
# Assays:
# [1] = tested on: Candida albicans; experiment: Toluidine blue or Methylene Blue mediated PDI with or without 0.6% chitosan, survival fraction; settings: for PDI effect (survival fraction): 0.5 mM photosensitizer, 630±5 nm LED 50 J/cm^2, without chitosan; for survival fraction of Candida albicans: 0.6% (w/v) chitosan added after the PDI, 50 J/cm^2
# [2] = tested on: Staphylococcus aureus (BCRC 10780); experiment: Rose Bengal, Methylene Blue and Chlorin e6 mediated PDI with or without chitosan, survival fraction; assay type: cell-based
molecule,measurement,setting,value
"CN(C)c1ccc2nc3ccc(=[N+](C)C)cc-3sc2c1 [MB, methylene blue]",PDI effect (survival fraction),[1],partially effective
same,survival fraction of Candida albicans,[1],greatly reduced
same,PDI effect (survival fraction),"[2]; 2 μM MB, 0 J/cm^2, without chitosan",ineffective
same,PDI effect (survival fraction),"[2]; 2 μM MB, 0.025% (w/v) chitosan",significantly enhanced
same,PDI effect (survival fraction),"[2]; 2 μM MB, 0.025% (w/v) chitosan, 10-20 J/cm^2",complete eradication
same,PDI effect (survival fraction),"[2]; 2 μM MB, 5 J/cm^2, without chitosan",slightly effective
same,PDI effect (survival fraction),"[2]; 2 μM MB, 10-20 J/cm^2, without chitosan",apparently more effective than the lower dose
"O=C1OC2(c3cc(I)c(O)c(I)c3Oc3c2cc(I)c(O)c3I)c2c(Cl)c(Cl)c(Cl)c(Cl)c21 [RB, Rose Bengal]",PDI effect (survival fraction),"[2]; 0.025 μM RB, 25 J/cm^2, 0.025% chitosan",complete removal of the bacteria
same,PDI effect (survival fraction),"[2]; 0.025 μM RB, 25 J/cm^2, without chitosan",not able to result in complete eradication
"Cc1cc2nc3ccc(N(C)C)cc3[s+]c2cc1N.[Cl-] [TB, toluidine blue]",PDI effect (survival fraction),[1],partially effective
same,survival fraction of Candida albicans,[1],greatly reduced
chlorine e6 [Ce6],PDI effect (survival fraction),"[2]; 0.05 μM Ce6, 0.1% (w/v) chitosan, 10 J/cm^2",complete eradication
same,PDI bacterial killing effect,"[2]; 0.05 μM Ce6 with chitosan, concentration dependent manner (0.01-0.1 μM)",significantly enhance
